ChEMBL document CHEMBL1201862, “PubChem BioAssay data set” (2004)
The source made the active and inactive calls.

Key:
[1] = Luminescence Cell-Based Dose Response HTS to Identify Activators of Luciferase Translation or Activity in H4-C Neuroglioblastoma Cells. [Related pubchem assays: 1829 (Project Summary), 1814 (Primary HTS)]; format: functional
[2] = test system: H4; test: Luminescence Cell-Based Dose Response HTS to Identify Activators of 5'UTR Stem-Loop Driven Prion Protein mRNA Translation in H4 Neuroglioblastoma Cells. [Related pubchem assays: 1829 (Project Summary), 1814 (Primary HTS)]; format: functional; conditions: Homo sapiens
[3] = Luminescence Cell-Based Dose Response HTS to Identify Activators of 5'UTR Stem-Loop Driven Prion Protein mRNA Translation in H4-C Neuroglioblastoma Cells. [Related pubchem assays: 1829 (Project Summary), 1814 (Primary HTS)]; format: functional
[4] = Luminescence Cell-Based Dose Confirmation HTS to Identify Activators of 5'UTR Stem-Loop Driven Alpha-Synuclein mRNA Translation in H4 Neuroglioblastoma Cells. [Related pubchem assays: 1829 (Project Summary), 1814 (Primary HTS)]; format: functional
[5] = Luminescence Cell-Based Dose Retest to Confirm Activators of 5'UTR Stem-Loop Driven Alpha-Synuclein mRNA Translation in H4 Neuroglioblastoma Cells. [Related pubchem assays (depositor defined):AID1813, AID1829]; format: functional
[6] = Luminescence Cell-Based Dose Response to Identify Activators of 5'UTR Stem-Loop Driven Prion Protein mRNA Translation in H4-C Neuroglioblastoma Cells. [Related pubchem assays: 1829 (Project Summary), 1814 (Primary HTS)]; format: functional
[7] = Luminescence Cell-Based Dose Confirmation to Identify Activators of 5'UTR Stem-Loop Driven Alpha-Synuclein mRNA Translation in H4 Neuroglioblastoma Cells. [Related pubchem assays: 1829 (Project Summary), 1814 (Primary HTS)]; format: functional
[8] = Luminescence Cell-Based Dose Response to Identify Activators of Luciferase Translation or Activity in H4-C Neuroglioblastoma Cells. [Related pubchem assays: 1829 (Project Summary), 1814 (Primary HTS)]; format: functional
[9] = Luminescence Cell-Based Dose Response HTS to Identify Activators of Luciferase Translation or Activity in H4 […] Cells. [Related pubchem assays: 1829 (Project Summary), 1814 (Primary HTS)]; format: functional
[10] = molecular target: Eukaryotic translation initiation factor 4E (Mus musculus, UniProt P63073); test: blockers of eIF4G binding by eIF4E – biochemical, TR-FRET, dose response (AID 855); format: functional;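 also: potency for disrupting eIF4E binding to eIF4GI seen as loss of FRET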
Sequence of Eukaryotic translation initiation factor 4E (P63073 whole entry): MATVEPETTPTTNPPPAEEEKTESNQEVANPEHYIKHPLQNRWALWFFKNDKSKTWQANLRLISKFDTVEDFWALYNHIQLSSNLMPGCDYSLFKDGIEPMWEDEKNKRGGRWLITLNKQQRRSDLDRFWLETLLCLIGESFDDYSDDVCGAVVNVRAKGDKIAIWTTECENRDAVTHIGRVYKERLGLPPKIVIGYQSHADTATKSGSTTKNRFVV

[11] = molecular target: Polyadenylate-binding protein 1 (Homo sapiens, UniProt P11940); test: PABP inhibition in translation initiation, SAR follow-up (AID 435018); format: functional
Sequence of Polyadenylate-binding protein 1 (P11940 whole entry): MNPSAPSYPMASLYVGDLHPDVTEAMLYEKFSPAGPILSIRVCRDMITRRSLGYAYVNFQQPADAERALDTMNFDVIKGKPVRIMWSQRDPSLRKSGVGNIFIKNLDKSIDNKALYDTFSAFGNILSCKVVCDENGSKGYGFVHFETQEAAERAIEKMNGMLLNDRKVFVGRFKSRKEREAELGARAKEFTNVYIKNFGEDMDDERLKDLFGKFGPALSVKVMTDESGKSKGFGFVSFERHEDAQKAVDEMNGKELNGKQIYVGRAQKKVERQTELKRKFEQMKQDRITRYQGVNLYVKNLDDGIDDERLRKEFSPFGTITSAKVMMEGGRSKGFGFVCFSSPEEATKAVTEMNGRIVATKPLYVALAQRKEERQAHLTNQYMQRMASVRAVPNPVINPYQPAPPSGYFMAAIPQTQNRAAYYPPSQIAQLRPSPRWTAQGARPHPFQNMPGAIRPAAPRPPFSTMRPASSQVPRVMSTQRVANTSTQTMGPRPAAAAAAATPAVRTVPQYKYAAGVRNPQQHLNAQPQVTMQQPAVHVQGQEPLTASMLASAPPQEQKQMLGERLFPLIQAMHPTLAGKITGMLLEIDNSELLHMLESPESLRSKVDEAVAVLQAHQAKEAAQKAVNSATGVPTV

[12] = molecular target: Eukaryotic translation initiation factor 4H (Homo sapiens, UniProt Q15056); test: inhibitors of translation initiation factor eIF4H – SAR follow-up (AID 435011); format: functional
[13] = A cytotoxicity screen of small molecule inhibitors of the PhoP region in Salmonella typhi identified in the primary screen. [Related pubchem assays: 1850, 1864, 1985 ]; format: functional
[14] = molecular target: T1, Bcl-2-related protein A1 (Mus musculus, UniProt Q07440); test: small-molecule antagonists of Bfl-1/BH3 interaction – biochemical, TR-FRET, mouse Bfl-1, confirmation (AID 621);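 also: TR-FRET binding of GST-Bfl-1 to FITC-labelled Bid peptide via terbium antibody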
T1 sequence (Q07440 whole entry): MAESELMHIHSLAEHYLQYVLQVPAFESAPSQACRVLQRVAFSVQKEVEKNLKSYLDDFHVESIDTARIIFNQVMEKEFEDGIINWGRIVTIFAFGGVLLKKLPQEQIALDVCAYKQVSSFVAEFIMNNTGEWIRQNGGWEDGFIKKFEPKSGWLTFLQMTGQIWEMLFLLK

[15] = molecular target: T1, Bcl-2-related protein A1; test: displacement of Bid BH3 peptide from Bfl-1 – biochemical, fluorescence polarization, FITC-Bid, mouse, primary screen (AID 432)
[16] = molecular target: NACHT, LRR and PYD domains-containing protein 3 (Homo sapiens, UniProt Q96P20); test: NALP3 inhibitors in yeast, dose response, luminescent (AID 488799); format: functional
Sequence of NACHT, LRR and PYD domains-containing protein 3 (Q96P20 whole entry, the tested form may be a part): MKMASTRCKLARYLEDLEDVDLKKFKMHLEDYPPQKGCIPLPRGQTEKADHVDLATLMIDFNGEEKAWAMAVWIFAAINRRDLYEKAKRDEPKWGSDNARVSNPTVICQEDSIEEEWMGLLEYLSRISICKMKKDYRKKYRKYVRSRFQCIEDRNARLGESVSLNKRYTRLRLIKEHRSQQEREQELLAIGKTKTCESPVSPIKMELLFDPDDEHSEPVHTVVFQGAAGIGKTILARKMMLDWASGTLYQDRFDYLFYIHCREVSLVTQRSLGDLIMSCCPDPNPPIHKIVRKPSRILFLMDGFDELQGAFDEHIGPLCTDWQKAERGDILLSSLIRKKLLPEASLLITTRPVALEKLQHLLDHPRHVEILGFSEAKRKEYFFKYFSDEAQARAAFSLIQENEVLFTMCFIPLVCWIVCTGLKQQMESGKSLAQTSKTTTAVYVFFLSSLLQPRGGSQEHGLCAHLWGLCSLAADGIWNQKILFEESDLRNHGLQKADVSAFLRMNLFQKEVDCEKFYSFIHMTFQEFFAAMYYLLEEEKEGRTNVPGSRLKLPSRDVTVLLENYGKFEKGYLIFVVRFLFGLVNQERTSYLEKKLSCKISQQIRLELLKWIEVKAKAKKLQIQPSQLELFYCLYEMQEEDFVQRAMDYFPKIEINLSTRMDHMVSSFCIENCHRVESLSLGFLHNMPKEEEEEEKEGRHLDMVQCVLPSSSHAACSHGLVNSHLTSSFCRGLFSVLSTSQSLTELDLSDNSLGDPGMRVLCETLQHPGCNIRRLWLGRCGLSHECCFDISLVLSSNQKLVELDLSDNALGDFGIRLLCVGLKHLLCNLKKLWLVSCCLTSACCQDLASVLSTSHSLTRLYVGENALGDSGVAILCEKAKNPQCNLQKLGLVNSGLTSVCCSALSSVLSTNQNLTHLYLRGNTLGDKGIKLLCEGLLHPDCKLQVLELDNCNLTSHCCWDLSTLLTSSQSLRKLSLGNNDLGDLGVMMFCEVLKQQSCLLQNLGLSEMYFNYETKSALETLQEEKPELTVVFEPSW

[17] = molecular target: T2, Mannose-6-phosphate isomerase (Homo sapiens, UniProt P34949); test: Confirmation of compounds inhibiting phosphomannose isomerase (PMI) via a fluorescence intensity assay using a high concentration of mannose 6-phosphate. [Related pubchem assays (depositor defined):AID1209, AID1220, AID1545, AID1553, AID1620]
T2 sequence (P34949 whole entry): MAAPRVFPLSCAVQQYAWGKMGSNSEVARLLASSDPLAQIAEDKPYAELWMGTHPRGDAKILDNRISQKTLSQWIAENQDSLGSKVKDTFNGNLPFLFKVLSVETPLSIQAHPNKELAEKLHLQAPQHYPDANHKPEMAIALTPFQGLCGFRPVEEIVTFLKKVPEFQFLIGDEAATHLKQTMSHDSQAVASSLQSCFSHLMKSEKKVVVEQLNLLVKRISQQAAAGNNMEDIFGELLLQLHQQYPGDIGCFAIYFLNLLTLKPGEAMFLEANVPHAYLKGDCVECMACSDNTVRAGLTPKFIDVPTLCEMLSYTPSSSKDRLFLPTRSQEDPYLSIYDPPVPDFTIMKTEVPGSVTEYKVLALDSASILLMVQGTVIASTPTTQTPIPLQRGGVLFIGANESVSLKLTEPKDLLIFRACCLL

[18] = molecular target: Alkaline phosphatase, placental type (Homo sapiens, UniProt P05187); test: human placental alkaline phosphatase inhibition – biochemical, luminescence, confirmation (AID 1512); format: functional
Sequence of Alkaline phosphatase, placental type (P05187 whole entry): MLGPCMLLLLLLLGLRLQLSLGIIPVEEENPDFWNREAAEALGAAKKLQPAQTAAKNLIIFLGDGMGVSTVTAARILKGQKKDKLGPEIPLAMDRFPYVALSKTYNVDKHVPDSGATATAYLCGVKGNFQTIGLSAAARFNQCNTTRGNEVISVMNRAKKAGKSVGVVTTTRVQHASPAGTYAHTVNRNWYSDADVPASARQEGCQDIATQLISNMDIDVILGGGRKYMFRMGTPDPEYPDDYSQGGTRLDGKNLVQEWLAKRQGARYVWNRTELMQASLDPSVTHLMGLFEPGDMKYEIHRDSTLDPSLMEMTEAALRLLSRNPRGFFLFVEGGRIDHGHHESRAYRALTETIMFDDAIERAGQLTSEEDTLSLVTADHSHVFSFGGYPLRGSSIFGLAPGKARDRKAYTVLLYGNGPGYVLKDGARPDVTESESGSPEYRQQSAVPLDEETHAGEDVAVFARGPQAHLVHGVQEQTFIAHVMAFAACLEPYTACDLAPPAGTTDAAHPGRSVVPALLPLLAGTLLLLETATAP

[19] = molecular target: T2, Mannose-6-phosphate isomerase; test: phosphomannose isomerase inhibition – biochemical, fluorescence intensity, confirmation (AID 1535)

## C=CCc1ccc(OCCn2nnc3ccccc32)c(OC)c1
[1]
  EC50: 0.772 µM (active)
[2]
  EC50: 8.33 µM (active)
[3]
  EC50: > 195 µM (not active)
[4]
  EC50: < 0.1 µM (active)
[5]
  EC50: > 195 µM (inactive)
[6]
  EC50: 1.49 µM (active)
[7]
  EC50: > 12 µM (not active)
[8]
  EC50: 3.71 µM (active)
[9]
  EC50: 4.24 µM (active)

## CC(=O)Nc1c(-c2ccccc2)nc2ncccn12
[10]
  IC50: > 64 µM (inactive)

## COc1cc(NC(=O)CSc2ccc(-c3ccco3)nn2)cc(OC)c1
[11]
  IC50: > 100 µM (inactive)
[12]
  IC50: 62.7 µM (active)

## O=C(Nc1cccc(Br)c1)c1cc2ccccc2o1
[13]
  EC50: > 50 µM (active)
[14]
  IC50: > 100 µM (not active)
[15]
  IC50: > 100 µM (not active)
[16]
  IC50: 9.81 µM (active)

## O=C1N(Cc2ccccc2)c2ccccc2C12NNc1ccccc1O2 (centres undefined)
[17]
  IC50: > 100 µM (inactive)
[18]
  IC50: > 100 µM (inactive)
[19]
  IC50: > 100 µM (inactive)
